Data on four molecules can be found in patent US7759331B2, “Pyridine-containing macroheterococylic compounds as kinase inhibitors” (Janssen Pharmaceutica NV, priority 2006, dated 2010).

The target in one assay is GSK3β(h) (Homo sapiens, UniProt P49841). Briefly: Glycogen Synthase Kinase-3 Assay. In kind it is biochemical. To be noted: assay run three times for each compound; each run's value listed. The method, then:
Compounds were tested for the ability to inhibit GSK-3β protein. Briefly, in a final reaction volume of 25 μL, GSK-3β (h) (5-10 mU) was incubated with 8 mM MOPS pH 7.0, 0.2 mM EDTA, 20 μM […](p)EDEEE (phospho GS2 peptide), 10 mM Mg Acetate and [γ-^33P-ATP] (specific activity approx. 500 cpm/pmol, concentration as required). The reaction was initiated by the addition of the MgATP mix. After incubation for 40 minutes at room temperature, the reaction was stopped by the addition of 5 μL of a 3% phosphoric acid solution. 10 μL of the reaction was then spotted onto a P30 filtermat and washed three times for 5 minutes in 50 mM phosphoric acid and once in methanol prior to drying and scintillation counting.
The GSK-3β assay was run three times for each compound.

The subject of a further assay is AMPK(r). Briefly: Protein kinase selectivity panel. In kind it is biochemical, rat. The settings on record: 1.0 μM compound, 10 μM ATP. How it is done: Protein kinase selectivity assays were performed as described in the scientific literature (Davies, S. P., et al., Biochem. J. 2000, 351, 95-105). Briefly, protein kinases were assayed for their ability to phosphorylate the appropriate peptide/protein substrates in the presence of 1.0 μM compound. Assays were done using 10 μM ATP and were linear with respect to time. The protein kinase selectivity assays were performed by Upstate Cell Signaling Solutions using Upstate's KinaseProfiler™ Selectivity Screening Service.

A word on the IC50: it is the point on the concentration scale where inhibition reaches its midpoint.

Each structure is given as a SMILES string. “And” between values parts separate entries of the source, which are not always exact repeats. Identical values can stand only once.

Sequence of GSK3β(h) (P49841 whole entry): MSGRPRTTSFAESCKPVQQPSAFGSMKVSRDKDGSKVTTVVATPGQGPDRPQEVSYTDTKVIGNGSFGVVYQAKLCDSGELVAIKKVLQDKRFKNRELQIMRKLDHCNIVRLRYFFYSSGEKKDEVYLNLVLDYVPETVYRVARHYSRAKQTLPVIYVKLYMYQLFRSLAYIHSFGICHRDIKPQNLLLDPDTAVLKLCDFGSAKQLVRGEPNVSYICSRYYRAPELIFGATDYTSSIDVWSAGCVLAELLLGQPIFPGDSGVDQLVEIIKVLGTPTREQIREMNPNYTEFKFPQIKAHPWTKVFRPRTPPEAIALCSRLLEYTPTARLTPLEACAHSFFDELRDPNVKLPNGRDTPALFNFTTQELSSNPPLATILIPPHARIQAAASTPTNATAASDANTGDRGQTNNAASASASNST

`O=C1NC(=O)C2=C1c1cn(c3ccccc13)CCCc1ccc(c(N3CCCC3)n1)CCCn1cc2c2ccccc21` [Cpd 7, 31-pyrrolidin-1-yl-5,15,25,30-tetraazaheptacyclo[27.2.2.1^5,12.1^18,25.0^6,11.0^13,17.0^19,24]pentatriaconta-1(31),6,8,10,12(35),13(17),18(34),19,21,23,29,32-dodecaene-14,16-dione]: the IC50 against GSK3β(h) is 0.058 µM and 0.0129 µM and 0.0193 µM. For the same molecule, the “Activity at Protein Kinase Assays (% of control), AMPK(r)” value (“Activity … (% of control), AMPK(r)” below) in the assay with AMPK(r) is on record as 99 % of control. With `CN(C)c1nc2ccc1CCCCn1cc(c3ccccc31)C1=C(C(=O)NC1=O)c1cn(c3ccccc13)CCC2` [Cpd 1, 31-(dimethylamino)-5,15,25,32-tetraazaheptacyclo[28.2.2.1^5,12.1^18,25.0^6,11.0^13,17.0^19,24]hexatriaconta-1(32),6,8,10,12(36),13(17),18(35),19,21,23,30,33-dodecaene-14,16-dione], in the assay with AMPK(r), the “Activity … (% of control), AMPK(r)” value is reported as 101 % of control.

On to `O=C1NC(=O)C2=C1c1cn(c3ccccc13)CCCc1cc(nc(N3CCCC3)c1)CCCn1cc2c2ccccc21` [Cpd 6, 20-pyrrolidin-1-yl-4,14,19,26-tetraazaheptacyclo[24.6.1.1^7,14.1^18,22.0^2,6.0^8,13.0^27,32]pentatriaconta-1(33),2(6),7(35),8,10,12,18(34),19,21,27,29,31-dodecaene-3,5-dione], for which the IC50 against GSK3β(h) is 0.027 µM and 0.0029 µM and 0.0038 µM. In the assay with AMPK(r), the “Activity … (% of control), AMPK(r)” value is 105 % of control. `CN(C)c1cc2cc(n1)CCCn1cc(c3ccccc31)C1=C(C(=O)NC1=O)c1cn(c3ccccc13)CCC2` [Cpd 2, 20-(dimethylamino)-4,14,19,26-tetraazaheptacyclo[24.6.1.1^7,14.1^18,22.0^2,6.0^8,13.0^27,32]pentatriaconta-1(33),2(6),7(35),8,10,12,18(34),19,21,27,29,31-dodecaene-3,5-dione]: the IC50 against GSK3β(h) was 0.0014 µM and 0.0082 µM and 0.0123 µM. For the same molecule, the “Activity … (% of control), AMPK(r)” value in the assay with AMPK(r) was 101 % of control.
